From ChEMBL document CHEMBL1177720, “Selective hexapeptide agonists and antagonists for human complement C3a receptor” (J Med Chem, 2010)
Activity calls are given as the source filed them. No cut-off for these calls is given here. Square brackets hold non-standard residues; d marks the D form. Peptide text beside a SMILES is read from it. Cha = N[C@@H](CC1CCCCC1)C(=O)O; Orn = NCCC[C@H](N)C(=O)O

Key:
[1] = biological target: T1, C5a anaphylatoxin chemotactic receptor 1 (Homo sapiens) (UniProt P21730); experiment: Displacement of […] from C5a receptor in human PBMC at 1 mM by scintillation counting
T1 sequence (whole entry): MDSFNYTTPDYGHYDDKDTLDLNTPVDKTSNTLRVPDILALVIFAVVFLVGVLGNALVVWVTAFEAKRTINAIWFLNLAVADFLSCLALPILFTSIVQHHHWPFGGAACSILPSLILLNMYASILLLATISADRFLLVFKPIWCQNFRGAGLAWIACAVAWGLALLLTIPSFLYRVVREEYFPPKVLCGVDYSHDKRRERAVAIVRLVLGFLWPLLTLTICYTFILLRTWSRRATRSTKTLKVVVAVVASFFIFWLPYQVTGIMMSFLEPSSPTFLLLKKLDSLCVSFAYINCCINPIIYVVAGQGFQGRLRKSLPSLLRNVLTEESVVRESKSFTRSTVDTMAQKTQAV

[2] = biological target: T2, C3a anaphylatoxin chemotactic receptor (Homo sapiens, UniProt Q16581); experiment: Agonist activity at human C3a receptor in human U937 cells assessed as induction of intracellular calcium release; type: functional, cell-based, U-937; details: read-out: EC50
T2 sequence (Q16581 whole entry): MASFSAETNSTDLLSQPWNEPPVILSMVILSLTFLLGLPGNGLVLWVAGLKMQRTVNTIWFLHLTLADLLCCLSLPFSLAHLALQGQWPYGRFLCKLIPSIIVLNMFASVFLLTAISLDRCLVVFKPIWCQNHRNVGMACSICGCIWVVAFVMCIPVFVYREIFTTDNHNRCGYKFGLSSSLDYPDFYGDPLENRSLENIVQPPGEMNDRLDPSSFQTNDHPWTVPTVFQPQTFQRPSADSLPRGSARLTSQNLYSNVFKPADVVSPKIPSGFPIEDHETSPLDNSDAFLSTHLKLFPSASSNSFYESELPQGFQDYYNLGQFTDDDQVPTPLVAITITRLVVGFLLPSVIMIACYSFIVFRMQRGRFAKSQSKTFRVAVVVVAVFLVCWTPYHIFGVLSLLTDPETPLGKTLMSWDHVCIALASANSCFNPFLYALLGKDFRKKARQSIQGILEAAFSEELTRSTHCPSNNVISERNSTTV

[3] = biological target: T2, C3a anaphylatoxin chemotactic receptor; experiment: Displacement of [125I-C3a] from C3a receptor in human PBMC by scintillation counting
[4] = biological target: T3, C3a anaphylatoxin chemotactic receptor (Homo sapiens) (UniProt Q16581); experiment: Agonist activity at human C3a receptor in human U937 cells assessed as induction of intracellular calcium release at 1 mM; type: functional, cell-based; details: U-937
T3 sequence (whole entry): T2 sequence (Q16581 whole entry)

[5] = biological target: T3, C3a anaphylatoxin chemotactic receptor (Homo sapiens); experiment: Agonist activity at human C3a receptor in human U937 cells assessed as induction of intracellular calcium release at 10 uM; type: functional, cell-based; details: U-937

SMILES	Activity [1]	EC50 [2]	IC50 ([3]; read-out: IC50)	Activity [4]	further results
CC(C)C[C@H](NC(=O)[C@@H](NC(=O)[C@H](Cc1c[nH]c2ccccc12)NC(=O)[C@@H](N)Cc1c[nH]c2ccccc12)[C@@H](C)O)C(=O)N[C@@H](C)C(=O)N[C@@H](CCCNC(=N)N)C(=O)O (H-WWTLAR-OH)	inactive	910 nM	244 nM		
CC(C)C[C@H](NC(=O)[C@@H](NC(=O)[C@H](Cc1ccc(O)cc1)NC(=O)[C@@H](N)Cc1ccccc1)[C@@H](C)O)C(=O)N[C@@H](C)C(=O)N[C@@H](CCCNC(=N)N)C(=O)O (H-FYTLAR-OH)	inactive	4800 nM	166 nM		
CC(C)C[C@H](NC(=O)[C@@H](N)Cc1ccccc1)C(=O)N[C@H](C(=O)N[C@@H](CO)C(=O)N[C@@H](C)C(=O)N[C@@H](CCCNC(=N)N)C(=O)O)[C@@H](C)O (H-FLTSAR-OH)	inactive		8200 nM	inactive	
CC(C)C[C@H](NC(=O)CNC(=O)[C@H](CC(C)C)NC(=O)[C@@H](N)Cc1cnc[nH]1)C(=O)N[C@@H](C)C(=O)N[C@@H](CCCNC(=N)N)C(=O)O (H-HLGLAR-OH)	inactive	3800 nM	5900 nM		
CC(C)C[C@H](NC(=O)[C@@H](NC(=O)[C@H](Cc1c[nH]c2ccccc12)NC(=O)[C@@H](N)Cc1ccccc1)[C@@H](C)O)C(=O)N[C@@H](C)C(=O)N[C@@H](CCCNC(=N)N)C(=O)O (H-FWTLAR-OH)	inactive	370 nM	82 nM		
CC[C@H](C)[C@H](NC(=O)[C@@H](N)Cc1ccccc1)C(=O)N1CCC[C@H]1C(=O)N[C@@H](CC(C)C)C(=O)N[C@@H](C)C(=O)N[C@@H](CCCNC(=N)N)C(=O)O (H-FIPLAR-OH)	inactive	950 nM	0.18 nM		IC50 ([3]; read-out: pIC50 (converted)): 229 nM
CC(C)C[C@H](NC(=O)[C@@H]1CCCN1C(=O)[C@H](CCCCN)NC(=O)[C@@H](N)Cc1ccccc1)C(=O)N[C@@H](Cc1ccccc1)C(=O)N[C@@H](CCCNC(=N)N)C(=O)O (H-FKPLFR-OH)				inactive	
C[C@H](NC(=O)[C@H](Cc1c[nH]c2ccccc12)NC(=O)[C@@H]1CCCN1C(=O)[C@H](CCCCN)NC(=O)[C@@H](N)Cc1ccccc1)C(=O)N[C@@H](CCCNC(=N)N)C(=O)O (H-FKPWAR-OH)				inactive	
CC(C)C[C@H](NC(=O)[C@@H]1CCCN1C(=O)[C@H](CCCN)NC(=O)[C@@H](N)Cc1ccccc1)C(=O)N[C@@H](C)C(=O)N[C@@H](CCCNC(=N)N)C(=O)O (H-F[Orn]PLAR-OH)				inactive	
CC[C@H](C)[C@H](NC(=O)[C@@H](NC(=O)[C@H](CC(C)C)NC(=O)[C@@H](N)Cc1ccccc1)[C@@H](C)O)C(=O)N[C@@H](C)C(=O)N[C@@H](CCCNC(=N)N)C(=O)O (H-FLTIAR-OH)				inactive	
CC(C)C[C@H](NC(=O)[C@@H]1CCCN1C(=O)[C@H](CCCNC(=N)N)NC(=O)[C@@H](N)Cc1ccccc1)C(=O)N[C@@H](C)C(=O)N[C@@H](CCCNC(=N)N)C(=O)O (H-FRPLAR-OH)				inactive	
CC(C)C[C@H](NC(=O)[C@@H](NC(=O)[C@H](CC(C)C)NC(=O)[C@@H](N)Cc1ccccc1)[C@@H](C)O)C(=O)N[C@@H](C)C(=O)N[C@@H](CCCNC(=N)N)C(=O)O (H-FLTLAR-OH)	inactive	320 nM	42 nM		
CC(C)C[C@H](NC(=O)[C@H](CC(C)C)NC(=O)[C@@H](NC(=O)[C@H](CC(C)C)NC(=O)[C@@H](N)Cc1ccccc1)[C@@H](C)O)C(=O)N[C@@H](CCCNC(=N)N)C(=O)O (H-FLTLLR-OH)				inactive	
CC(C)C[C@H](NC(=O)[C@@H]1CCCN1C(=O)[C@@H](N)Cc1c[nH]c2ccccc12)C(=O)N1CCC[C@H]1C(=O)N[C@@H](CCCNC(=N)N)C(=O)O (H-WPLPR-OH)	inactive		27000 nM	inactive	IC50 ([3]; read-out: pIC50 (converted)): 31600 nM; Activity [5]: inactive
CC(C)C[C@H](NC(=O)CNC(=O)[C@H](CC(C)C)NC(=O)[C@@H](N)Cc1ccccc1)C(=O)N[C@@H](C)C(=O)N[C@@H](CCCNC(=N)N)C(=O)O (H-FLGLAR-OH)	inactive	520 nM	157 nM		
CC(C)C[C@H](NC(=O)[C@@H]1CCCN1C(=O)[C@H](CCC(=O)O)NC(=O)[C@@H](N)Cc1ccccc1)C(=O)N[C@@H](C)C(=O)N[C@@H](CCCNC(=N)N)C(=O)O (H-FEPLAR-OH)				inactive	
CC(C)C[C@H](NC(=O)[C@@H](NC(=O)[C@H](CC(C)C)NC(=O)[C@@H](N)CCCNC(=N)N)[C@@H](C)O)C(=O)N[C@@H](C)C(=O)N[C@@H](CCCNC(=N)N)C(=O)O (H-RLTLAR-OH)				inactive	
CC(C)C[C@H](NC(=O)[C@@H]1CCCN1C(=O)[C@H](CCCCN)NC(=O)[C@@H](N)Cc1c[nH]c2ccccc12)C(=O)N[C@@H](C)C(=O)N[C@@H](CCCNC(=N)N)C(=O)O (H-WKPLAR-OH)				inactive	
CC(C)C[C@H](NC(=O)[C@H](C)NC(=O)[C@H](CC(C)C)NC(=O)[C@@H](N)Cc1cnc[nH]1)C(=O)N[C@@H](C)C(=O)N[C@@H](CCCNC(=N)N)C(=O)O (H-HLALAR-OH)	inactive		6300 nM	inactive	Activity [5]: inactive
CC(C)C[C@H](NC(=O)[C@@H]1CCCN1C(=O)[C@H](Cc1c[nH]c2ccccc12)NC(=O)[C@@H](N)Cc1ccccc1)C(=O)N[C@@H](C)C(=O)N[C@@H](CCCNC(=N)N)C(=O)O (H-FWPLAR-OH)	inactive	580 nM	274 nM		
C[C@H](NC(=O)[C@H](CC1CCCCC1)NC(=O)[C@@H]1CCCN1C(=O)[C@H](CCCCN)NC(=O)[C@@H](N)Cc1ccccc1)C(=O)N[C@@H](CCCNC(=N)N)C(=O)O (H-FKP[Cha]AR-OH)				inactive	
CC(C)C[C@H](NC(=O)[C@@H]1CCCN1C(=O)[C@H](CCCCN)NC(=O)[C@@H](N)Cc1cnc[nH]1)C(=O)N[C@@H](C)C(=O)N[C@@H](CCCNC(=N)N)C(=O)O (H-HKPLAR-OH)				inactive	
CC(C)C[C@H](NC(=O)[C@@H]1CCCN1C(=O)[C@H](CCCCN)NC(=O)[C@@H](N)CC1CCCCC1)C(=O)N[C@@H](C)C(=O)N[C@@H](CCCNC(=N)N)C(=O)O (H-[Cha]KPLAR-OH)				inactive	
CC(C)C[C@H](NC(=O)CNC(=O)[C@H](CC(C)C)NC(=O)[C@H](CCCCN)NC(=O)[C@H](CO)NC(=O)[C@H](C)NC(=O)[C@H](CCCN=C(N)N)NC(=O)[C@H](Cc1ccc(O)cc1)NC(=O)[C@H](CCCCN)NC(=O)[C@H](CCCCN)NC(=O)CNC(=O)[C@H](Cc1c[nH]c2ccccc12)NC(=O)[C@@H](N)Cc1c[nH]c2ccccc12)C(=O)N[C@@H](C)C(=O)N[C@@H](CCCN=C(N)N)C(=O)O (H-WWGKKYRASKLGLAR-OH)		1300 nM	2 nM		
CC(C)C[C@H](NC(=O)[C@@H](N)Cc1ccccc1)C(=O)N[C@H](C(=O)N[C@H](CC1CCCCC1)C(=O)N[C@@H](C)C(=O)N[C@@H](CCCNC(=N)N)C(=O)O)[C@@H](C)O				inactive	
CC(C)C[C@H](NC(=O)CNC(=O)[C@H](CC(C)C)NC(=O)[C@H](CCCCN)NC(=O)[C@H](CO)NC(=O)[C@H](C)NC(=O)[C@H](CCCNC(=N)N)NC(=O)[C@H](Cc1ccc(O)cc1)NC(=O)[C@H](CCCCN)NC(=O)[C@H](CCCCN)NC(=O)CNC(=O)[C@H](Cc1c[nH]c2ccccc12)NC(=O)[C@@H](N)Cc1c[nH]c2ccccc12)C(=O)N[C@@H](C)C(=O)N[C@@H](CCCNC(=N)N)C(=O)O (H-WWGKKYRASKLGLAR-OH)	inactive				
